The conditions of data set [1]: 25°C, cited from earlier work.
For data set [2] the following is noted: Fe^III, 25°C, cited from earlier work.
The nature of data set [3]: Stability and protonation constants of Fe^III complexes (pH-potentiometry, spectrophotometry, competition with Bha^−). The note with it: 0.15 M NaNO3, 25°C. The data set is classed as physicochemical. As for the experimental part:
Stability constant of [Fe(Bha)]^2+ complex was determined by spectrophotometry, studying the Fe^III-HBha systems at the absorption band of Fe^III-complex over the wavelength range of 400–800 nm in two sets of experiments. Individual samples were prepared in the first series in which the concentrations of Fe^III and HBha was constant 0.2 and 2.0 mM, while that of the H^+ was varied between […] (eight samples, Figure S1). The H^+ concentration in the samples was adjusted by addition of calculated amounts of 2.0 M HNO3. The ionic strength was constant in the samples with [H^+] < 0.15 M ([H^+]+[Na^+] = 0.15 M). Samples were kept at 25°C for a week. Absorbance values were determined at 11 wavelengths (400, 415, 430, 445, 460, 475, 490, 505, 520, 535, and 550 nm). In the second set, spectrophotometric titrations were done with samples containing HBha ligand in 2.0 mM concentration, whereas the concentration of Fe^III was varied between 0.1–0.3 mM (Figures S2–S4). The pH of the samples was adjusted using concentrated NaOH and HNO3 solutions in the pH range 1.7–11.0 (0.15 M NaNO3 and 25°C). For calculation of the equilibrium constants, the best fit of the absorbance–pH data was obtained by assuming formation of [Fe(Bha)]^2+, [Fe(Bha)2]^+, [Fe(Bha)3], and [Fe(Bha)2(OH)2]^− species (Figure S5). The molar absorptivity of [Fe(Bha)]^2+, [Fe(Bha)2]^+, [Fe(Bha)3] and [Fe(Bha)2(OH)2]^− species were also determined at the same 11 wavelengths in these experiments (Figure S6).
The stability constant of the [Fe(TRAP)]^3− complex has been determined by spectrophotometry, using competition reactions between HTRAP^5− and Bha^− for Fe^III at pH = 10.0. Concentration of [Fe(TRAP)]^3− was 0.2 mM, while that of HBha was varied between 0.0 and 1.5 mM (6 samples). The samples were kept at 25°C for 2 weeks. Absorbance values of the Fe^III-HTRAP^5−-Bha^− systems were determined at 11 wavelengths (400, 415, 430, 445, 460, 475, 490, 505, 520, 535, and 550 nm). The molar absorptivities of [Fe(TRAP)]^3− and [Fe(TRAP)OH]^4− in equilibrium solutions were determined by recording the absorption spectra of 0.1, 0.2, and 0.3 mM solution of [Fe(TRAP)]^3− in the pH range 6.0–12.0. The molar absorptivity of [Fe(Bha)2(OH)2]^− species was determined in the separate experiments. Absorbance and pH values were determined in the samples after equilibration (the time needed to reach the equilibria was determined by spectrophotometry). Spectrophotometric measurements were done using 1.0 cm cells with a Cary 1E spectrophotometer at 25°C. Protonation constants of the Fe^III complex formed with TRAP^6− were determined by direct pH-potentiometric titration at 1:1 metal to ligand ratios (both concentrations were 0.002 M). For calculation of the logKMHiL values, the mL base–pH data used were measured in the pH range 1.7 −12.0.
For pH measurements and titrations, a Metrohm 785 DMP Titrino titration workstation and a Metrohm-6.0233.100 combined electrode were used. Equilibrium measurements were carried out at a constant ionic strength (0.15 M NaNO3 or NaCl) in 6 mL samples at 25°C. Solutions were stirred and continuously purged with N2. Titrations were performed in a pH range of 1.7–12.0. […] For calculation of [H^+] from measured pH values, the method proposed by Irving et al. was used (Irving et al., [1967]). […] Differences between the measured (pHread) and calculated pH (–log[H^+]) values were used to obtain the equilibrium H^+ concentration from the pH values, measured in the titration experiments. […]

Data set [4] is described as follows: Protonation constants of ligands by pH-potentiometry. To be noted: 0.15 M NaNO3, 25°C. The data set is classed as physicochemical. As for the experimental part: For determining the protonation constants of H6TRAP and H3NOTA ligands three parallel pH-potentiometric titration were made with 0.2 M NaOH in 0.002 M ligand solutions.
For pH measurements and titrations, a Metrohm 785 DMP Titrino titration workstation and a Metrohm-6.0233.100 combined electrode were used. Equilibrium measurements were carried out at a constant ionic strength (0.15 M NaNO3 or NaCl) in 6 mL samples at 25°C. Solutions were stirred and continuously purged with N2. Titrations were performed in a pH range of 1.7–12.0. KH-phthalate (pH = 4.005) and borax (pH = 9.177) buffers were used to calibrate the pH meter. For calculation of [H^+] from measured pH values, the method proposed by Irving et al. was used (Irving et al., [1967]). A 0.01 M HNO3 or HCl solution was titrated with the standardized NaOH solution in the presence of 0.15 M NaNO3 or NaCl. Differences between the measured (pHread) and calculated pH (–log[H^+]) values were used to obtain the equilibrium H^+ concentration from the pH values, measured in the titration experiments. For equilibrium calculations, the stoichiometric water ionic product (pKw) is also needed to calculate [H^+] values in basic conditions. The VNaOH–pHread data pairs of the HNO3–NaOH or HCl–NaOH titration obtained in the pH range 10.5–12.0 have been used to calculate the pKw value (pKw = 13.84). For calculation of the equilibrium constants, the program PSEQUAD (Zekany and Nagypal, [1985]) was used. The standard deviation (SD) of the equilibrium parameters calculated by the program PSEQUAD is defined by Equation (1)
Protonation equilibria of the TRAP^6−, NOTA^3− and Bha^− ligands were studied by pH-potentiometry. The protonation constants (log KiH ) of ligands defined by Equation (3) are listed in Table 1 (standard deviations are shown in parentheses). The charges of ligands and complexes will be indicated when it is necessary.
(3) KiH=[HiL]/[Hi−1L][H^+] i=0,1,2…6

The conditions of data set [5]: cited from earlier work; for log β3OH hydrolysis constant: M(OH)3, ref Baes and Mesmer; for log β3OH hydrolysis constant / log β2OH hydrolysis constant / log β1OH hydrolysis constant: [1976]; for log β2OH hydrolysis constant: [M(OH)2]^+; for log β1OH hydrolysis constant: [M(OH)]^2+.
For data set [6] the following is noted: 25°C, cited from earlier work. The source holds these as a separate data set.
Details of data set [7]: method as in Brucher and Sherry, [1990]. The note with it: 25°C, ref Brucher and Sherry, [1990]; cited from earlier work.
Details of data set [8]: method as in Notni et al., [2010]; Baranyai et al., [2015]. The note with it: Zn^II, ref Notni et al., [2010]; Baranyai et al., [2015]; cited from earlier work.
The mark [9] stands for this setting: 0.2 M KCl, ref Farkas et al., [1998].
Setting [10] is: ref Baes and Mesmer, listed as Fe^3+.
Setting [11] is: 0.1 M KCl, ref Clarke and Martell, [1991].
[12] abbreviates: 0.1 M Me4NCl, ref Drahos et al., [2011].
The mark [13] stands for this setting: 0.15 M NaCl, ref Baranyai et al., [2015].
[14] abbreviates: Ga^III, 0.1 M Me4NCl, ref Simecek et al., [2012].

The values that follow come from publication PMC5974124, “Equilibrium Thermodynamics, Formation, and Dissociation Kinetics of Trivalent Iron and Gallium Complexes of Triazacyclononane-Triphosphinate (TRAP) Chelators: Unraveling the Foundations of Highly Selective Ga-68 Labeling” (Frontiers in Chemistry, 2018).

Where two headings read alike, the source gives them in different places. Marks after values point to notes of the source that are not given here.

`O=C(NO)c1ccccc1` [Bha^−, benzhydroxamic acid]: the “log K1H protonation constant” value in data set [1] (setting [9]) is 8.69. Also, in data set [2] (setting [9]), the “logK ML2” value is given as 10.12, the “logK ML3” value was 7.60 and the “logK ML stability constant” value is reported as 11.08. In addition, in data set [3], the “logK ML2” value is 9.03(2), the “logK ML3” value is reported as 7.41(3), the “logK ML stability constant” value is 10.80(2) and the “logβFeL2(OH)2” value is recorded as 6.68(5). Further, the “log K1H protonation constant” value in data set [4] is 8.53(3).
`[Fe+3]` [Fe^III]: the results for the “log β3OH hydrolysis constant” value in data set [5] and in data set [5] (listed as Fe^3+) were −12.0 and “–12.0”, respectively. Besides, the “logβ4^OH hydrolysis constant” value in data set [5] ([Fe(OH)4]^-, ref Baes and Mesmer, 1976) was “–21.6”. For the same compound, the “log β2OH hydrolysis constant” value was −5.67 in data set [5] (ref Baes and Mesmer); “–5.67” in data set [5] (setting [10]). In addition, the “log β1OH hydrolysis constant” value in data set [5] (ref Baes and Mesmer) is −2.19; in data set [5] (setting [10]) it was “–2.19”.
On to `[Ga+3]` [Ga^III], for which the “log β3OH hydrolysis constant” value in data set [5] is −8.2. In data set [5] (ref Baes and Mesmer), the “log β2OH hydrolysis constant” value is given as −5.92 and the “log β1OH hydrolysis constant” value is −2.97.
Consider `O=C(O)CN1CCN(CC(=O)O)CCN(CC(=O)O)CC1` [NOTA^3−, 1,4,7-triazacyclononane-1,4,7-triacetic acid], for which the “log K1H protonation constant” value in data set [1] (setting [11]) was 11.98; in data set [1] (setting [12]), 13.17; in data set [1] (setting [13]) it was 12.16; in data set [4] it was 11.94(2). In addition, the “log K2H protonation constant” value in data set [1] (setting [11]) is 5.65; in data set [1] (setting [12]) it was 5.74; in data set [1] (setting [13]), 5.75; in data set [4], 5.71(3). Besides, the “log K3H protonation constant” value in data set [1] (setting [11]) is given as 3.18; in data set [1] (setting [12]), 3.22; in data set [1] (setting [13]), 3.18; in data set [4], 3.14(3). Moreover, the “log K4H protonation constant” value was 1.96 in data set [1] (setting [12]), 1.90 in data set [1] (setting [13]) and 1.60(2) in data set [4]. Also, the “Σlog KiH total ligand basicity” value was 24.09 in data set [1] (setting [12]); 22.99 in data set [1] (0.15 M NaCl, for TRAP^6− log K3H, K4H, K5H not considered, ref Baranyai et al., [2015]); 22.39 in data set [4] (for TRAP^6− log K3H, K4H, K5H not considered). Besides, the “logK M(L)OH” value in data set [6] (setting [14]) is 9.83; in data set [3] it was 9.12(4)^e. Besides, in data set [6] (setting [14]), the “logK MHL protonation constant of complex” value is given as 0.9. Besides, the “logK ML stability constant” value is recorded as 29.60 in data set [6] (setting [14]) and 28.3 in data set [2] (setting [11]).
For `O=C([O-])CN1CCN(CC(=O)[O-])CCN(CC(=O)[O-])CC1.[Ce+3]` [[Ce(NOTA)]], the “kOH formation rate constant” value in data set [7] is 6.3e+07 M⁻¹ s⁻¹.
Take `O=C([O-])CN1CCN(CC(=O)[O-])CCN(CC(=O)[O-])CC1.[Er+3]` [[Er(NOTA)]]: the “kOH formation rate constant” value in data set [7] was 5.5e+07 M⁻¹ s⁻¹.
For the compound `O=C([O-])CN(CCN(CC(=O)[O-])Cc1ccccc1[O-])Cc1ccccc1[O-].[Ga+3]` [[Ga(HBED)]^−], the “logKGa(HBED) stability constant” value in data set [6] (0.1 M KCl, ref Ma et al., [1994]) was 38.51.
`O=C([O-])CN1CCN(CC(=O)[O-])CCN(CC(=O)[O-])CC1.[Gd+3]` [[Gd(NOTA)]]: in data set [7], the “kOH formation rate constant” value was 7.1e+07 M⁻¹ s⁻¹.
For `O=C([O-])CCP(=O)(O)CN1CCN(CP(=O)(O)CCC(=O)[O-])CCN(CP(=O)(O)CCC(=O)O)CC1.[Zn+2]` [[Zn(TRAP)]^4−], the logKML stability constant in data set [8] is on record as 16.07.
